Assay results as given in US10407467B2, “Polymyxin derivatives and their use in combination therapy together with different antibiotics” (priority 2013, dated 2019).
Bridge positions count the residues as written; N and C are the ends. Square brackets hold non-standard residues; d marks the D form. Peptide text beside a SMILES is read from it. * marks the point of attachment. ξ: configuration not given here. X12 = CC(C)C[C@H](N)[C@H](O)C(=O)*; X22 = O=C(C[C@@H]1Cc2ccccc2CN1)*; Thr(3ξ) = CC(O)[C@H](N)C(=O)O; Dab = NCC[C@H](N)C(=O)O; X3 = O=C([C@H]1CCCNC1)*; Dap = NC[C@H](N)C(=O)O

System: HK-2 cell line
Experiment: In vitro renal cell toxicity assay (resazurin reduction)
Type: cell-based, human

Row | Molecule | HK-2 IC50 rel to PMB | HK-2 relative to PMB | HK-2 toxicity (IC50) compared with PMB
1 | CC(C)C[C@@H]1NC(=O)[C@@H](Cc2ccccc2)NC(=O)[C@H](CCN)NC(=O)[C@@H](NC(=O)[C@H](CN)NC(=O)[C@@H](NC(=O)[C@H](CCN)NC(=O)[C@H]2CCCNC2)C(C)O)CCNC(=O)[C@H](C(C)O)NC(=O)[C@H](CCN)NC(=O)[C@H](CCN)NC1=O (stereo partly drawn) [Example A13, [(3S)-piperidine-3-carbonyl]-L-Dab-L-Thr-L-Dap polymyxin B heptapeptide] (X3-[Dab][Thr(3ξ)][Dap][Dab][Dab][dF]L[Dab][Dab][Thr(3ξ)]; lactam 4-C) | 10 |  | 
2 | CC(C)C[C@@H]1NC(=O)[C@@H](Cc2ccccc2)NC(=O)[C@H](CCN)NC(=O)[C@@H](NC(=O)[C@H](CCN)NC(=O)[C@@H](NC(=O)C[C@@H]2Cc3ccccc3CN2)C(C)O)CCNC(=O)[C@H](C(C)O)NC(=O)[C@H](CCN)NC(=O)[C@H](CCN)NC1=O (stereo partly drawn) [Example A14, (S)-2-((1,2,3,4)-tetrahydroisoquinolin-3-yl) ethanoyl polymyxin B nonapeptide] (X22-[Thr(3ξ)][Dab][Dab][Dab][dF]L[Dab][Dab][Thr(3ξ)]; lactam 3-C) | 5.3 |  | 
3 | CC(C)C[C@@H]1NC(=O)[C@@H](Cc2ccccc2)NC(=O)[C@H](CCN)NC(=O)[C@@H](NC(=O)[C@H](CN)NC(=O)[C@@H](NC(=O)[C@H](CCN)NC(=O)[C@@H](O)[C@@H](N)CC(C)C)C(C)O)CCNC(=O)[C@H](C(C)O)NC(=O)[C@H](CCN)NC(=O)[C@H](CCN)NC1=O (stereo partly drawn) [Example A17, [(2S,3S)-3-Amino-2-hydroxy-5-methylhexanoyl]-L-Dab-L-Thr-L-Dap polymyxin B heptapeptide] (X12-[Dab][Thr(3ξ)][Dap][Dab][Dab][dF]L[Dab][Dab][Thr(3ξ)]; lactam 4-C) | 5.5 |  | 
4 | CC(C)C[C@@H]1NC(=O)[C@@H](Cc2ccccc2)NC(=O)[C@H](CCN)NC(=O)[C@@H](NC(=O)[C@H](CCN)NC(=O)[C@@H](NC(=O)[C@H](CCN)NC(=O)[C@H]2CCCNC2)C(C)O)CCNC(=O)[C@H](C(C)O)NC(=O)[C@H](CCN)NC(=O)[C@H](CCN)NC1=O (stereo partly drawn) [Example A22, (S)-Piperidine-3-carbonyl polymyxin B decapeptide] (X3-[Dab][Thr(3ξ)][Dab][Dab][Dab][dF]L[Dab][Dab][Thr(3ξ)]; lactam 4-C) | 7.4 |  | 
5 | Octanoyl polymyxin B nonapeptide, sulfate salt [Example C6, reference compound] |  | 3.3 | reduced toxicity against HK-2 compared with PMB
